According to US11981658B2, “Substituted aminopyridine compounds as EGFR inhibitors” (YUHAN CORPORATION, priority 2021, dated 2024):
Where two headings read alike, the source gives them in different places.

Legend:
EGFR Del19/T790M/C797S = EGFR Del19/T790M/C797S (Homo sapiens, UniProt P00533, C797S/DEL746-750/T790M); test: Biochemical EGFR kinase inhibition assay (Lance Ultra TR-FRET), triple mutant del19/T790M/C797S
Outline: (§1)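 In this biochemical assay, phosphorylation after a one-hour room-temperature reaction was detected with europium-labelled anti-phosphopeptide antibody at 2 nM final concentration.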

EGFR Del19/C797S = EGFR Del19/C797S (Homo sapiens, UniProt P00533, C797S/DEL746-750); test: Biochemical EGFR kinase inhibition assay (Lance Ultra TR-FRET), double mutant del19/C797S
Outline: as §1

EGFR wildtype (WT) = EGFR wildtype (WT) (Homo sapiens, UniProt P00533); test: Biochemical EGFR kinase inhibition assay (Lance Ultra TR-FRET), wildtype
Outline: as §1

EGFR L858R/T790M/C797S = EGFR L858R/T790M/C797S (Homo sapiens, UniProt P00533, C797S/L858R/T790M); test: Biochemical EGFR kinase inhibition assay (Lance Ultra TR-FRET), triple mutant L858R/T790M/C797S
Outline: as §1

EGFR L858R/C797S = EGFR L858R/C797S (Homo sapiens, UniProt P00533, C797S/L858R); test: Biochemical EGFR kinase inhibition assay (Lance Ultra TR-FRET), double mutant L858R/C797S
Outline: as §1

[1] = ATP at Km, read-out: IC50 Del19/T790M/C797S (nM), Km ATP
[2] = IC50 Del19/T790M/C797S (nM), 100 μM ATP
[3] = ATP at Km, read-out: IC50 Del19/C797S (nM), Km ATP
[4] = IC50 Del19/C797S (nM), 100 μM ATP
[5] = ATP at Km, read-out: IC50 WT (nM), Km ATP
[6] = ATP at Km, read-out: IC50 L858R/T790M/C797S (nM), Km ATP
[7] = IC50 L858R/T790M/C797S (nM), 100 μM ATP
[8] = ATP at Km, read-out: IC50 L858R/C797S (nM), Km ATP
[9] = IC50 L858R/C797S (nM), 100 μM ATP
[10] = Km ATP, read-out: IC50 Del19/T790M/C797S (nM) Km ATP
[11] = Km ATP, read-out: IC50 Del19/C797S (nM) Km ATP
[12] = Km ATP, read-out: IC50 WT (nM) Km ATP
[13] = Km ATP, read-out: IC50 L858R/T790M/C797S (nM) Km ATP
[14] = Km ATP, read-out: IC50 L858R/C797S (nM) Km ATP
[15] = Km ATP, read-out: IC50 Del19/T790M/C797S (nM), Km ATP
[16] = Km ATP, read-out: IC50 L858R/T790M/C797S (nM), Km ATP
[17] = Km ATP, read-out: IC50 Del19/C797S (nM), Km ATP
[18] = Km ATP, read-out: IC50 WT (nM), Km ATP
[19] = Km ATP, read-out: IC50 L858R/C797S (nM), Km ATP

Sequence of EGFR L858R/C797S (P00533 25-1210 C797S/L858R): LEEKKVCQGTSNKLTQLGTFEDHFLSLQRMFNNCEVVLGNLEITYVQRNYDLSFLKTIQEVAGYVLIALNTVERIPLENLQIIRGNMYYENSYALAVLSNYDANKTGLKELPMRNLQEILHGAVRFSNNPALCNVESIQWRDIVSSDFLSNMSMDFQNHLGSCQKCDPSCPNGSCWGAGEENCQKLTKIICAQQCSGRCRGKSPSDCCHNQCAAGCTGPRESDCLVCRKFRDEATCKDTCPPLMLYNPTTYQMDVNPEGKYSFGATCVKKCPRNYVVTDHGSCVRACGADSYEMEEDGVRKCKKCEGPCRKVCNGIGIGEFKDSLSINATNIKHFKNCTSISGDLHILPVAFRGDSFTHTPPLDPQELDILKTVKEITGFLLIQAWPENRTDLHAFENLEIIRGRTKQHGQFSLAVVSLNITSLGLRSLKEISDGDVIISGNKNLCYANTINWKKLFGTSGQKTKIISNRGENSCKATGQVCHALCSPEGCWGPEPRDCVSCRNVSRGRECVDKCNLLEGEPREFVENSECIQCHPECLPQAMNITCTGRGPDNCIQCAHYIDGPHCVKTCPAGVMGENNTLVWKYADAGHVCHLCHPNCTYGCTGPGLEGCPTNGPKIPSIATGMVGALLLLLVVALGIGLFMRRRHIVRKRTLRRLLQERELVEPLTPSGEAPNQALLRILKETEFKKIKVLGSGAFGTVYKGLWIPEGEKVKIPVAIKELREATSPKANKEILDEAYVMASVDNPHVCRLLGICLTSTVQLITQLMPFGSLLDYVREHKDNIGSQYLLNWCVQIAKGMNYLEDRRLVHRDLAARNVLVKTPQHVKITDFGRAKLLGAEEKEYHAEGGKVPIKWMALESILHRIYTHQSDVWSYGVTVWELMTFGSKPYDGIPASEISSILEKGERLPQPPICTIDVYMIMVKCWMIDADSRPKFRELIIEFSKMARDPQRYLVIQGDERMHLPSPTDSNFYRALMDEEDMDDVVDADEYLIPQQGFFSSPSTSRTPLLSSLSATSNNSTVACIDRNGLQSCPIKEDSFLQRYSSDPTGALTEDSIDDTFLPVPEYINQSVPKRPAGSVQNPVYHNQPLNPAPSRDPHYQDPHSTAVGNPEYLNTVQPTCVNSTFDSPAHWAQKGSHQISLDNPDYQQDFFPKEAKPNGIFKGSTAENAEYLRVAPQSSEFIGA
Sequence of EGFR L858R/T790M/C797S (P00533 25-1210 T790M/C797S/L858R): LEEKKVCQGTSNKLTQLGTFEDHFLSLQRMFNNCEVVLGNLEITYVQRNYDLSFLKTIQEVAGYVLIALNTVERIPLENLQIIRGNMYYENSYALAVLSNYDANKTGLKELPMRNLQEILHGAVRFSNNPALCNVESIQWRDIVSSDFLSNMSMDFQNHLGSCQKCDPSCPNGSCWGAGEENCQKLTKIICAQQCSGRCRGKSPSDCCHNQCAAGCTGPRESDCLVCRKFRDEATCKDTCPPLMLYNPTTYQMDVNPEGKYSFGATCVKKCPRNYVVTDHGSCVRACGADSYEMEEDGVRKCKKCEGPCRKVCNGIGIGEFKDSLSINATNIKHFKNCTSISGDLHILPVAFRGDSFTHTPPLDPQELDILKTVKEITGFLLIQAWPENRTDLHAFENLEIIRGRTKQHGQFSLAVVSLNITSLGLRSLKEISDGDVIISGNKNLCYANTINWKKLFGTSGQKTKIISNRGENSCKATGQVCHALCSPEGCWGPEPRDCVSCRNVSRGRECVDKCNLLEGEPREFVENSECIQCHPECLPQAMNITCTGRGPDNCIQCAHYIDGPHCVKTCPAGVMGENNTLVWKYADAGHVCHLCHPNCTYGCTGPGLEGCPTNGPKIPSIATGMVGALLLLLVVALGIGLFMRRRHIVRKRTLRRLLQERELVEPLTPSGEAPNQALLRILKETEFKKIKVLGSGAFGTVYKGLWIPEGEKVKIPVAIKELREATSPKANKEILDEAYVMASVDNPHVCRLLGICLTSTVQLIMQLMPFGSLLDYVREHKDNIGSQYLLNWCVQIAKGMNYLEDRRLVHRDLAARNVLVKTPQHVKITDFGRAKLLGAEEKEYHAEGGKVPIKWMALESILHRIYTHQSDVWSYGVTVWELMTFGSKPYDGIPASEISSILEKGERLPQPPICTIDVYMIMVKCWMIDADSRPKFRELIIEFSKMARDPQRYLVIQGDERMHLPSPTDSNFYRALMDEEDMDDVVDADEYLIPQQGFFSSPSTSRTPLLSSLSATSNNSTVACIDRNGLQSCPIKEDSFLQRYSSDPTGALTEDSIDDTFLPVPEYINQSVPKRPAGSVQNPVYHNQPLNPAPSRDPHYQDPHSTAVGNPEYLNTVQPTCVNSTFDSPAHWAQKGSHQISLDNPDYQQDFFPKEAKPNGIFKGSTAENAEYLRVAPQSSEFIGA
Sequence of EGFR Del19/C797S (P00533 with tags, fused parts or gaps DEL746-750/C797S): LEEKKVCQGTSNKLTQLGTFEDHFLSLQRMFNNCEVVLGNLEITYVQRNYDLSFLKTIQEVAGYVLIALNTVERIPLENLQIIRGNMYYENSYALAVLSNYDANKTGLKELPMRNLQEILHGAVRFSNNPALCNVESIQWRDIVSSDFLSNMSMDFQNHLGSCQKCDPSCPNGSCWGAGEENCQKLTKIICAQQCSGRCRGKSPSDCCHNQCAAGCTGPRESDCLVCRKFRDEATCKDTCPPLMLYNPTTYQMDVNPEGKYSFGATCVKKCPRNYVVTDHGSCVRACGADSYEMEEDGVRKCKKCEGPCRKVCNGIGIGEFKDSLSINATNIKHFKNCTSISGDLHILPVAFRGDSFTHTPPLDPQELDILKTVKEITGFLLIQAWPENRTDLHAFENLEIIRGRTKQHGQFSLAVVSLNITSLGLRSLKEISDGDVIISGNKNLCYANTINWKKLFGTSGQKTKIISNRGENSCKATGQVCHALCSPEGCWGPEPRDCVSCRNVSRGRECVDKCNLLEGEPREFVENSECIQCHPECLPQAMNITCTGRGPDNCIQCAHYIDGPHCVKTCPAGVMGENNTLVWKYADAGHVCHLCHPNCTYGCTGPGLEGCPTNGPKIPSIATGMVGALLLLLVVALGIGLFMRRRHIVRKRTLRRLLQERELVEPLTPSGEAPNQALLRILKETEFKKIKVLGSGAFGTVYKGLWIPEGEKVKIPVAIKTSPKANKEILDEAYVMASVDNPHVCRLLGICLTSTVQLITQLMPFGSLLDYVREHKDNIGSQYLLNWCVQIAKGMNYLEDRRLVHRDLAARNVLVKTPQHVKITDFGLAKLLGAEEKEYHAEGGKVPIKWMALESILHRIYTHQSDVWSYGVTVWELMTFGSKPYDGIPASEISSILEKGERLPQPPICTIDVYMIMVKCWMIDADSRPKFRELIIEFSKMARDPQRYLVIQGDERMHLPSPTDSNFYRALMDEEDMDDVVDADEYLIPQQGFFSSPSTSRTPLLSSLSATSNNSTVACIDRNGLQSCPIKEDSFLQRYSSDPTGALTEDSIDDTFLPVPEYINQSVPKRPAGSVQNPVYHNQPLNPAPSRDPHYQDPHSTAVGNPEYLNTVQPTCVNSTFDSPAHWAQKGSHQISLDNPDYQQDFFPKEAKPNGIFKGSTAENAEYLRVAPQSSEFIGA
Sequence of EGFR wildtype (WT) (P00533 25-1210): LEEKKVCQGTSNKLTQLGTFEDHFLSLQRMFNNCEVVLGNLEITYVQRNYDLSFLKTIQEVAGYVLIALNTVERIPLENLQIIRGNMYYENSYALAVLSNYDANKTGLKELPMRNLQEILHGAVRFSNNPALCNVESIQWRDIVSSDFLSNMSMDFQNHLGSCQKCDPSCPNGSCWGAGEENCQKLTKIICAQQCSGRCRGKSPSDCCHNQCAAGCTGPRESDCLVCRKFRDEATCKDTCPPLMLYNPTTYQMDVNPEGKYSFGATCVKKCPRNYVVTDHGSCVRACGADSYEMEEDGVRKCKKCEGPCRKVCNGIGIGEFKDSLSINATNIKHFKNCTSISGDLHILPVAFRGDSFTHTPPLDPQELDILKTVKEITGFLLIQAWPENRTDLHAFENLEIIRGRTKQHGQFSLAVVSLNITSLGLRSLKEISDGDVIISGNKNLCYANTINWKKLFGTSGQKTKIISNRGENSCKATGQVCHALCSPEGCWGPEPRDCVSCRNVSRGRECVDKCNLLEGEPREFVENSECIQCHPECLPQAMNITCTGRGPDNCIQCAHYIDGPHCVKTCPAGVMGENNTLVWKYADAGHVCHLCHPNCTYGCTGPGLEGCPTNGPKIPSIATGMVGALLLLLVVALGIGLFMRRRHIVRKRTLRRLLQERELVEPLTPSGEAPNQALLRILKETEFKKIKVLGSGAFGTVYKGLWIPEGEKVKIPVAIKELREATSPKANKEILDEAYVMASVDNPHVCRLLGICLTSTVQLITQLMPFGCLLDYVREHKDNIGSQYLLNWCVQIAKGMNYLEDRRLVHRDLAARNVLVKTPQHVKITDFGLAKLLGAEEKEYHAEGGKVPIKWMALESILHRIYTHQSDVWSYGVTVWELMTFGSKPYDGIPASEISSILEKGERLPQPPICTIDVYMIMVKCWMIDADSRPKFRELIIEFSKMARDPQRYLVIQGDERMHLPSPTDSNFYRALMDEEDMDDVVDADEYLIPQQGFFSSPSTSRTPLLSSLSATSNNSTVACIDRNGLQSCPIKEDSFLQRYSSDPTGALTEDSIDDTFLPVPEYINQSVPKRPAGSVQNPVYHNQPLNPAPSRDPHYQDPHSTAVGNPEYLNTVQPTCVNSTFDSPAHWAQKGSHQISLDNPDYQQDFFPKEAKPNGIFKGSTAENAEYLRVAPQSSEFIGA

Compound | IC50 (EGFR Del19/T790M/C797S; [1]) | IC50 (EGFR Del19/T790M/C797S; [2]) | IC50 (EGFR Del19/C797S; [3]) | IC50 (EGFR Del19/C797S; [4]) | IC50 (EGFR wildtype (WT); [5]) | IC50 (EGFR wildtype (WT); IC50 WT (nM), 100 μM ATP) | IC50 (EGFR L858R/T790M/C797S; [6]) | IC50 (EGFR L858R/T790M/C797S; [7]) | IC50 (EGFR L858R/C797S; [8]) | IC50 (EGFR L858R/C797S; [9]) | IC50 (EGFR Del19/T790M/C797S; [10]) | IC50 (EGFR Del19/C797S; [11]) | IC50 (EGFR wildtype (WT); [12]) | IC50 (EGFR L858R/T790M/C797S; [13]) | IC50 (EGFR L858R/C797S; [14]) | IC50 (EGFR Del19/T790M/C797S; [15]) | IC50 (EGFR L858R/T790M/C797S; [16]) | IC50 (EGFR Del19/C797S; [17]) | IC50 (EGFR wildtype (WT); [18]) | IC50 (EGFR L858R/C797S; [19])
CC1(CO)CCN(c2cc(Nc3ccnc(-c4cnn(S(=O)(=O)C5CC5)c4)n3)ncc2C#Cc2cccc(C(=O)N3CCOCC3)c2)CC1 [Example 261, (3-((6-((2-(1-(Cyclopropylsulfonyl)-1H-pyrazol-4-yl)pyrimidin-4-yl)amino)-4-(4-(hydroxymethyl)-4-methylpiperidin-1-yl)pyridin-3-yl)ethynyl)phenyl)(morpholino)methanone] | 1.2 nM | 0.6 nM | 1.3 nM | 1 nM | 6.2 nM | 2500 nM | 0.5 nM | 0.6 nM | 1.3 nM | 4.2 nM | – | – | – | – | – | – | – | – | – | –
CC1(CO)CCN(c2cc(Nc3ccnc(-c4cnn(S(=O)(=O)C5CC5)c4)n3)ncc2C#Cc2csc(CN3CCOCC3)n2)CC1 [Example 189, (1-(2-((2-(1-(Cyclopropylsulfonyl)-1H-pyrazol-4-yl)pyrimidin-4-yl)amino)-5-((2-(morpholinomethyl)thiazol-4-yl)ethynyl)pyridin-4-yl)-4-methylpiperidin-4-yl)methanol] | 0.7 nM | 0.7 nM | 2.1 nM | 1.8 nM | 8.4 nM | > 10000 nM | 0.6 nM | 0.9 nM | 2.8 nM | 40.4 nM | – | – | – | – | – | – | – | – | – | –
CN(C)CC1(O)CCN(c2cc(Nc3ccnc(-c4cnn(S(=O)(=O)C5CC5)c4)n3)ncc2C#Cc2cnn(C3CC3)c2)CC1 [Example 316, 1-(5-((1-Cyclopropyl-1H-pyrazol-4-yl)ethynyl)-2-((2-(1-(cyclopropylsulfonyl)-1H-pyrazol-4-yl)pyrimidin-4-yl)amino)pyridin-4-yl)-4-((dimethylamino)methyl)piperidin-4-ol] | – | 4.7 nM | – | 56.7 nM | – | > 10000 nM | – | 5.8 nM | – | 72.8 nM | – | – | – | – | – | – | – | – | – | –
CN1CCC(C#Cc2cnc(Nc3ccnc(-c4cnn(S(=O)(=O)C5CC5)c4)n3)cc2NC2CCC(O)CC2)C1 (stereo not shown) [Example 181, (1s,4s)-4-((2-((2-(1-(Cyclopropylsulfonyl)-1H-pyrazol-4-yl)pyrimidin-4-yl)amino)-5-((1-methylpyrrolidin-3-yl)ethynyl)pyridin-4-yl)amino)cyclohexan-1-ol] | 0.1 nM | 0.1 nM | 0.7 nM | 0.6 nM | 6.1 nM | 2920 nM | 0.05 nM | 0.1 nM | 0.6 nM | 6 nM | – | – | – | – | – | – | – | – | – | –
CN(C)CC1(O)CCN(c2cc(Nc3ccnc(-c4cnn(S(=O)(=O)C5CC5)c4)n3)ncc2C#Cc2cnn(C(F)(F)F)c2)CC1 [Example 317, 1-(2-((2-(1-(Cyclopropylsulfonyl)-1H-pyrazol-4-yl)pyrimidin-4-yl)amino)-5-((1-(trifluoromethyl)-1H-pyrazol-4-yl)ethynyl)pyridin-4-yl)-4-((dimethylamino)methyl)piperidin-4-ol] | – | 16.2 nM | – | 245 nM | – | > 10000 nM | – | 35.1 nM | – | 334 nM | – | – | – | – | – | – | – | – | – | –
O=S(=O)(C1CC1)n1cc(-c2nccc(Nc3cc(N4CCC(F)(CO)CC4)c(C#Cc4cnn(C5CCOCC5)c4)cn3)n2)cn1 [Example 96, (1-(2-((2-(1-(Cyclopropylsulfonyl)-1H-pyrazol-4-yl)pyrimidin-4-yl)amino)-5-((1-(tetrahydro-2H-pyran-4-yl)-1H-pyrazol-4-yl)ethynyl)pyridin-4-yl)-4-fluoropiperidin-4-yl)methanol] | – | 1 nM | – | 3.1 nM | – | > 10000 nM | – | 2.1 nM | – | 8.1 nM | 1 nM | 3 nM | 12.8 nM | 0.6 nM | 1.5 nM | – | – | – | – | –
O=C(c1ccc(C#Cc2cnc(Nc3ccnc(-c4cnn(S(=O)(=O)C5CC5)c4)n3)cc2N[C@H]2CC[C@@H](CO)CC2)cc1)N1CCC(O)CC1 [Example 441, (4-((6-((2-(1-(Cyclopropylsulfonyl)-1H-pyrazol-4-yl)pyrimidin-4-yl)amino)-4-(((ls, 4s)-4-(hydroxymethyl)cyclohexyl)amino)pyridin-3-yl)ethynyl)phenyl)(4-hydroxypiperidin-1-yl)methanone] | – | 2.2 nM | – | 2.3 nM | – | > 10000 nM | – | 0.8 nM | – | 47.1 nM | – | – | – | – | – | 2.1 nM | 0.5 nM | – | – | –
O=S(=O)(C1CC1)n1cc(-c2nccc(Nc3cc(N[C@H]4CC[C@@H](CO)CC4)c(C#CC4C[C@@H]5CC[C@@H]4O5)cn3)n2)cn1 (stereo partly shown) [Example 422, ((1s,4s)-4-((5-((7-Oxabicyclo[2.2.1]heptan-2-yl)ethynyl)-2-((2-(1-(cyclopropylsulfonyl)-1H-pyrazol-4-yl)pyrimidin-4-yl)amino)pyridin-4-yl)amino)cyclohexyl)methanol] | – | 0.4 nM | – | 2.6 nM | – | 6510 nM | – | 0.5 nM | – | 59.4 nM | – | – | – | – | – | 0.9 nM | 0.4 nM | 2.6 nM | 10.5 nM | 3.2 nM
CC(=O)N1CCC(n2cc(C#Cc3cnc(Nc4ccnc(-c5cnn(S(=O)(=O)C6CC6)c5)n4)cc3N3CCC(=O)CC3)cn2)CC1 [Example 108, 1-(5-((1-(1-Acetylpiperidin-4-yl)-1H-pyrazol-4-yl)ethynyl)-2-((2-(1-(cyclopropylsulfonyl)-1H-pyrazol-4-yl)pyrimidin-4-yl)amino)pyridin-4-yl)piperidin-4-one] | – | 1.2 nM | – | 29.8 nM | – | > 10000 nM | – | 7.8 nM | – | 154 nM | 1.1 nM | 25.5 nM | 126 nM | 1.6 nM | 8.4 nM | – | – | – | – | –
CC1(CO)CCN(c2cc(Nc3ccnc(-c4cnn(S(=O)(=O)C5CC5)c4)n3)ncc2C#CC2CCN(S(C)(=O)=O)CC2)CC1 [Example 389, (1-(2-((2-(1-(Cyclopropylsulfonyl)-1H-pyrazol-4-yl)pyrimidin-4-yl)amino)-5-((1-(methylsulfonyl)piperidin-4-yl)ethynyl)pyridin-4-yl)-4-methylpiperidin-4-yl)methanol] | – | 0.5 nM | – | 2.1 nM | – | 5200 nM | – | 0.7 nM | – | 14.5 nM | – | – | – | – | – | 0.3 nM | 0.1 nM | 0.4 nM | 4.6 nM | 1.6 nM
O=S(=O)(C1CC1)n1cc(-c2nccc(Nc3cc(N[C@H]4CC[C@@H](O)CC4)c(C#CC4C[C@@H]5CC[C@@H]4O5)cn3)n2)cn1 (stereo partly shown) [Example 427, (1s,4s)-4-((5-((7-Oxabicyclo[2.2.1]heptan-2-yl)ethynyl)-2-((2-(1-(cyclopropylsulfonyl)-1H-pyrazol-4-yl)pyrimidin-4-yl)amino)pyridin-4-yl)amino)cyclohexan-1-ol] | – | 0.2 nM | – | 2.4 nM | – | > 10000 nM | – | 0.3 nM | – | 80.1 nM | – | – | – | – | – | 0.3 nM | 0.2 nM | 2.7 nM | 12 nM | 3.2 nM
